Measured values: patent publication US20010006942A1, “Chemokine receptor peptide vaccines for treatment and prevention of diabetes” (priority 1998, published 2001)
Ends that are not written are not given here.

What was measured:
[1] = test system: CXCR3 cell line transfectant; assay: FACS analysis: blocking of anti-CXCR3 antibody binding to CXCR3 transfectant; type: cell-based, human
anti-CXCR3 antibody = assay: ELISA binding of receptor-derived peptides to anti-CXCR3 antibody; design: species or system mouse; conditions: peptide coated on plate, antibody 0.5 μg/well, 2 hours
Description: The ability of these receptor-derived peptides to bind anti-CXCR3 antibody was evaluated using a standard ELISA format. The peptides were dissolved in 0.1 M bicarbonate buffer and coated on a 96 well ELISA plate overnight. The excess peptides were removed and nonspecific binding sites in the wells were blocked by 0.1 % bovine serum albumin. Anti-CXCR3 antibody (0.5 μg/well) was added to these wells and incubated for 2 hours. Excess antibody was removed by washing with PBS. HRP conjugated goat anti-mouse antibody was used as secondary antibody for detection. […] Further support for the conclusion that anti-CXCR3 antibody bound two of the seven receptor-derived peptides was provided by FACS analysis of the same interactions.

EAE = assay: prevention of EAE in mice by peptide vaccination; conditions: SP4-1 with CFA s.c. at 21 and 14 days before induction of EAE with PLP 139-151, SJL mice
Description: SJL mice (6-8 weeks old) were obtained from Jackson Laboratories. They were kept in quarantine for two weeks. […] For the experiments, induction of the disease is considered Day 0.
The emulsion was taken in 1 ml syringe (needed 2 syringes) fitted with a 25 gauge needle. Each mouse was given 100 μl of the emulsin under each flank near the hind legs by subcutaneous injection (total volume per mouse=200 μl, total peptide per mouse=200 μg).
One ml of PBS and 1 ml of CFA were mixed and sonicated for 5 seconds and the emulsin is drawn into a 1 ml syringe fitted with a 25 gauge needle. Each mouse was given 100 μl of this emulsion under each flank near hind legs by subcutaneous injection (total volume of CFA per mouse=200 μl).
To an aqueous solution of peptide (4 mg per ml in PBS) equal volume of CFA was added and the mixture was sonicated for 5 seconds. The emulsion was drawn in a 1 ml syringe fitted with a 25 gauge needle and subcutaneously injected (200 μl total per mouse) in mice at the foot pad and back.

[2] = test system: human CXCR3 SP-4-1 peptide; assay: serum ELISA for antibody response to SP4-1 peptide in vaccinated mice; type: in vivo; conditions: serum of vaccinated SJL mice, bled week 0 and week 5, ELISA
Description: The mice were bled at week 0 and week 5 and serum was tested by ELISA for the presence of antibodies against the human CXCR3 SP-4-1 peptide. Briefly, the SP4-1 peptide dissolved in 0.1 M sodium bicarbonate buffer was plated on a 96-well ELISA plate overnight. The nonspecific binding sites on the plate were coated with 0.1% bovine serum albumin solution in PBS. The wells were washed and serum (diluted in PBS) was added to the wells and incubated at room temperature for 1.5 hours. The wells were then washed and HRP conjugated anti-mouse immunoglobulin antibody was used to detect the presence of anti-SP4-1 antibodies).

[3] = molecular target: T1, human CXCR3 (CXCR3-NSO transfectants) (Homo sapiens, UniProt P49682); assay: microphysiometer bioassay for CXCR3 activation (extracellular acidification rate); type: cell-based; conditions: 1, 5, 10 mglml ligand pumped for 10 min
T1 construct: expressed in transfected cells
T1 sequence (P49682 1-368): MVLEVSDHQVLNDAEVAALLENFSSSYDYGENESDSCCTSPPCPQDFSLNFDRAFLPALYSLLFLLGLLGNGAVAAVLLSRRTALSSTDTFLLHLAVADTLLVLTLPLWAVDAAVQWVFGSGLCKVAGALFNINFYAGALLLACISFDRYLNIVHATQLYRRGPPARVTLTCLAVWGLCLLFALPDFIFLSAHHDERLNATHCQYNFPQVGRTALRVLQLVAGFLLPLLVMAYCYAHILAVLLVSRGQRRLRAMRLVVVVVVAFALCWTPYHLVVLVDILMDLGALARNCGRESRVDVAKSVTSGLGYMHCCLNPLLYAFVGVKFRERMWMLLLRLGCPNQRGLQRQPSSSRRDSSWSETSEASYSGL
Description: (§1) 5X10^5 CXCR3-NSO transfectant cells and untransfected “BONZO-NSO” cells (negative control) were spotted in the microphysiometer chambers along with agarose and 1, 5, 10 […] anti-CXCR3 (FIG 1a) or IP-10 (FIG 1b) was pumped for 10 min. […] The arrow indicates the time that ligands were added to the cells.
A stable line transfectant of NSO-1 cells expressing the cDNA for human CXCR3 was prepared according to standard techniques. The surface expression of hu-CXCR3 on the transfectants compared to untransfected parent NSO-1 cells was confirmed by FACS staining using mouse anti-human CXCR3 monoclonal antibody (R&D systems).
(§2) To establish a bioassay for CXCR3 activation, the CXCR3 transfectant cells were cultured with either human IP-10, or the mouse anti-human CXCR3 antibody, and the physiological response of the cells was measured using a microphysiometer. This machine measures changes in the pH of the extracellular medium of the cell cultures which result from ligand receptor binding on the cell surface. These extracellular acidification rate measurements have previously been used as markers of antigen specific T cell activation and T cell epitope identification. The current assay is used to provide a biological read out for the identification of chemokine or chemokine receptor peptides involved in binding to IP- 10 or agonistic anti-CXCR3 antibody.

[4] = test system: untransfected NSO-1 cells; assay: microphysiometer acidification rate, untransfected negative control cells; type: cell-based; conditions: untransfected NSO-1 (BONZO-NSO) cells
Description: as §1, §2

Question: With DAAVQWVFGSGLCKV-NH2 [SP-2-1] as the substance, how does the “inhibition of binding of anti-CXCR3 antibody to CXCR3 transfectants” value (“inhibition” below) [1] read?
Answer: The value was “failed to inhibit binding”.

Question: What about the “binding to anti-CXCR3 antibody” value (anti-CXCR3 antibody) of the same substance?
Answer: Its value is “nonbinding”.

Question: How did the “mice showing no clinical symptoms of EAE” value (EAE) turn out when DILMDLGALARNCGRESRVDVAKS-NH2 [SP-4-1] was run?
Answer: The value was 7 out of 8.

Question: And the “inhibition” value [1]?
Answer: The value was “potently blocked binding”.

Question: And the “antibody response against SP4-1 peptide” value [2]?
Answer: Its value is “show an antibody response against this peptide”.

Question: And the “binding to anti-CXCR3 antibody” value (anti-CXCR3 antibody)?
Answer: Its value is “substantial binding”.

Question: Which “inhibition” value [1] does the source give for PPCPQDFSLNFDRAFLPA-NH2 [SP-1-3] here?
Answer: Its value is “partial inhibition”.

Question: And the “binding to anti-CXCR3 antibody” value (anti-CXCR3 antibody)?
Answer: Its value is “substantial binding”.

Question: What does the source list for “human IP-10: human chemokine IP-10, ligand of CXCR3”?
Answer: acidification rate changes [3]: substantial acidification rate changes; acidification rate changes [4]: no change in acidification rate; acidification rate changes ([4]; listed as IP-10): did not show any change in acidification rate changes
